Measurements: patent US6174888A, “2-amino-7-(1-substituted-2-hydroxyethyl)-3,5-dihydropyrrolo[3,2-D]pyrimidin -4-ones” (Novartis AG, priority 1998, dated 2001)

What was measured:
[1] = molecular target: T1, Calf spleen PNP (Bos taurus, UniProt P55859); assay: PNP inhibition in vitro, colorimetric enzymic determination of inorganic phosphate (PNP and xanthine oxidase, substrate inosine); type: biochemical; details: 1 mM phosphate concentration
T1 construct: Calf spleen PNP is used as the enzyme source; from tissue; host or cells: calf spleen
T1 sequence (P55859 1-289): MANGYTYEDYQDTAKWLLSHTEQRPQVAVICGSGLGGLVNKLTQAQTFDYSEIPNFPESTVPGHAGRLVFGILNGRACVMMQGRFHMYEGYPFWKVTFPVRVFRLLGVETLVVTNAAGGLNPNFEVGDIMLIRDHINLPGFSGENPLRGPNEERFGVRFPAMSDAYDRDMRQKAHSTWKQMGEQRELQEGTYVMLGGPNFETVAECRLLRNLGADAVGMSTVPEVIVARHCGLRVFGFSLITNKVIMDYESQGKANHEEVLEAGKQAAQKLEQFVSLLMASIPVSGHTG
Procedure: PNP inhibition can also be determined in vitro as follows: An enzymic method for the determination of inorganic phosphate (see Chem. Pharm. Bull., 1981, 29:1451-5), based on the principle of forming hydrogen peroxide with purine nucleoside phosphorylase (PNP) and xanthine oxidase, is used to colorimetrically measure the degree of linkage between enzyme and substrate (inosine). Calf spleen PNP is used as the enzyme source. The IC50 values for the compounds studied are determined graphically at two phosphate concentrations (1 and 50 mM) from a plot of percent inhibition versus compound concentration.

[2] = system: Human CCRF-CEM cells; assay: potentiation of the cell growth inhibitory activity (cytotoxicity) of 2'-deoxyguanosine, CCRF-CEM cell assay; type: cell-based; details: d-Guo 10 μM, increase in cell number between 0 and 72 hours
Procedure: The selective suppression of spontaneous T-cell proliferation in vitro is measured by the potentiation of the cell growth inhibitory activity (cytotoxicity) of 2'-deoxyguanosine (d-Guo) by the compounds of the invention, determined as follows: Human CCRF-CEM cells are grown in RPMI-1640 medium. To suspension cultures of these cells, d-Guo at a fixed concentration (10 μM) and the candidate PNP inhibitor at varied concentrations are added and the number of cells are determined in a Coulter counter 24, 48, and 72 hours thereafter. […] This method is similar to that previously used to determine the effectiveness of PNP inhibitors on potentiation of the toxicity of d-Guo. [See D. A. Shewach et al., Cancer Res., 46, 519 (1986); J. C. Sircar et al., Agents and Actions, 21, 253 (1987), also Methods in Pharmacology, D. M. Paten, ed. 1985, pp. 147-162].

[3] = system: PNP; assay: PNP inhibition in vivo: increased plasma level of inosine in mice; details: 10 mg/Kg p.o.
Procedure: Briefly, mice are treated orally with the PNP inhibitor suspended in fortified cornstarch (3% cornstarch suspension in water with 0.33% Tween 80 and 5% PEG 400) at a final volume of 10 ml/kg. One or more hours after a single oral dose of compound, the mice are bled by cardiac puncture into 25 U/ml heparin to obtain plasma. The samples are analyzed for both inosine and drug levels by a gradient reverse-phase high performance liquid chromatography (HPLC) method (see Anal Chem, 1977, 49:2237-41). Quantitation is performed using an internal standard method with 2',3'-dideoxyinosine (DDI) as the internal standard.

[4] = system: collagen II induced arthritis; assay: collagen II induced arthritis in mice model; type: in vivo, mice (DBA/1LacJ); details: 20 mg/Kg/day, oral
Procedure: The antiarthritic activity can be determined in the collagen II induced arthritis in mice model. DBA/1LacJ female mice, 6-8 weeks old, are immunized with 100 μg of chicken type II collagen emulsified in Freund's complete adjuvant (FCA) by injecting at the base of the tail on day 0. On day 17 after collagen injection, the immune response to type II collagen is boosted with a subcutaneous injection of 200 μg LPS solubilized in PBS. Paws are examined on days 17, 21, 24, 28, 31, 35, and 42 and scored for the symptoms of arthritis based on criteria such as inflammation, swelling and ankylosis. Compounds are suspended in corn starch vehicle and administered orally to mice once daily beginning on day 1 and continuing through day 42.

[5] = system: transplant rejection; assay: mouse tail skin transplant rejection model; type: in vivo, mouse (C57BL/10-SnJ and B10.BR/SgSnJ)
Excerpt: Protection against transplant rejection can be determined in a mouse tail skin transplantation procedure.
Mice are anesthetized with tribromoethanol i.p. injection according to the method of Papaioannou and Fox (Lab. Animal Science 1993;43:189-92). The mouse tail skin transplant rejection model is a modification of that described by Baily and Usama, (Transpl. Bull. 1960;7:424-5). Four skin grafts per mouse are exchanged between strains [C57BL/10-SnJ (H-2K^b) and B10.BR/SgSnJ (H-2K^k)] at surgery (d0). Fitted skin grafts are made with a scalpel, and tail graft sites are protected with tubing for 2 days following surgery. Mouse tails are evaluated at day 7 for missing grafts. Only those graft sites that have patent grafts at day 7 are evaluated at later scoring intervals. Grafts are scored numerically for signs of rejection at ~weekly scoring intervals starting day 14. Dose-group mean graft scores are compared statistically.

**Q.** Which results are given for `Nc1nc2c([C@@H](CO)c3ccccc3)c[nH]c2c(=O)[nH]1` [3(f), 2-Amino-7-(2(S)-hydroxy-1-phenylethyl)-3,5-dihydro-4H-pyrrolo[3,2-d]-pyrimidin-4-one]?
**A.** IC50 [1]: ~10 nM; IC50 [2]: ~100 nM; increase in the plasma level of inosine [3]: significant increase

**Q.** `Nc1nc2c([C@@H](CO)c3ccccc3F)c[nH]c2c(=O)[nH]1` [Example 1, 2-amino-7-[1-(2-flourophenyl)-2(R)-hydroxyethyl]-3,5-dihydro-4H-pyrrolo[3,2-d]pyrimidin-4-one] was tested. Which IC50 [1] did it give?
**A.** The IC50 was ~10 nM.

**Q.** And the IC50 [2]?
**A.** The IC50 was ~75 nM.

**Q.** What about the “increase in the plasma level of inosine” value [3] of the same compound?
**A.** Its value is “significant increase”.

**Q.** What about the antiarthritic activity [4] of the same compound?
**A.** The antiarthritic activity was “effective”.

**Q.** What about the “protection against transplant rejection” value ([5]; 50 mg/Kg/day, mouse) of the same compound?
**A.** The value was “effective in protecting against transplant rejection”.

**Q.** And the “effect of combination with cyclosporin in the transplant rejection model” value ([5]; combination of a compound of the invention, e.g. of example 1, and cyclosporin)?
**A.** Its value is “superior to either cyclosporin or the PNP inhibitor alone”.
